{"source": "paper PMC13047053", "about": "“Crystal structure of human INPP5K with an allosteric inhibitor reveals the structural basis for species specific potency” (Scientific Reports, 2026)", "key": {"[1]": {"target": "T1, human INPP5K-cd (catalytic domain, 1-328) (Homo sapiens, UniProt Q9BT40)", "T1 construct": "human INPP5K catalytic domain (amino acids 1–328, INPP5K-cd, UniProt ID: Q9BT40); His6-MBP (MBP amino acids 1–387) (N, cleaved yes); TEV protease site ENLYFQG (N, cleaved yes); made in house; host or cells: E. coli Rosetta2 (DE3)", "T1 sequence (Q9BT40 1-328)": "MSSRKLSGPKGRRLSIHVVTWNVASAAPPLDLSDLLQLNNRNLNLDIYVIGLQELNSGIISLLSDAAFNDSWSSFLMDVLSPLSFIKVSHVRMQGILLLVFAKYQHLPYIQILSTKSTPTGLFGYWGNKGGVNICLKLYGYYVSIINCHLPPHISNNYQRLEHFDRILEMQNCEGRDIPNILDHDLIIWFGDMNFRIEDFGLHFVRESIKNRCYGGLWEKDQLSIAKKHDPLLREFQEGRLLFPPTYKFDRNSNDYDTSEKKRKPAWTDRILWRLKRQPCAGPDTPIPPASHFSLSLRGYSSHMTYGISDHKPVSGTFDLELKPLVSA", "assay": "Fluorescence polarization assay to evaluate phosphatase inhibition", "type": "biochemical", "details": "20 µM diC8-PI(3,4,5)P3, 30 min", "excerpt": "(§1) The oligonucleotides used for vector construction were synthesized and purchased from GenScript Inc. (Tokyo, Japan). The cDNA encoding human INPP5K catalytic domain (amino acids 1–328, INPP5K-cd, UniProt ID: Q9BT40), which excluded the SKICH region from the full-length INPP5K sequence, was cloned downstream of MBP (amino acids 1–387) with an N-terminal His6-tag in the pET28 expression vector, a Novagen product (Merck KGaA, Darmstadt, Germany). Between the MBP and INPP5K-cd sequences, the Tobacco Etch Virus protease cleavage site (ENLYFQG) was inserted, such that the MBP–INPP5K-cd fusion protein could be digested by TEV protease during purification. Furthermore, using the Gibson Assembly method, the sequence encoding the amino acids 280–299 ([…]) of INPP5K cd was replaced by the sequence encoding AKANPSGFLLTQKD, which corresponds to the amino acids 283–296 of the rat INPP5K-cd (UniProt ID: Q9R0B6), resulting in the deletion of six amino acid residues (delta-INPP5K-cd). The truncated construct was designed using a comparison between a structure model and the structures of several IP5Pases[9]–[11]. […] The concentration of protein obtained was measured using the Bradford method, with bovine serum albumin as the standard. Fractions corresponding to each purification step were analyzed by SDS-PAGE, followed by staining of the gel with Coomassie brilliant blue R-250. […]"}, "[2]": {"target": "T2, human delta-INPP5K-cd (loop-substituted catalytic domain) (Homo sapiens, UniProt Q9BT40, C280K/DEL284-290/G282N/G299D/H292G/INS279A/L297Q/R298K/S294L/S296T)", "T2 construct": "human INPP5K catalytic domain (amino acids 1–328, INPP5K-cd, UniProt ID: Q9BT40); His6-MBP (MBP amino acids 1–387) (N, cleaved yes); TEV protease site ENLYFQG (N, cleaved yes); made in house; host or cells: E. coli Rosetta2 (DE3)", "T2 sequence (Q9BT40 other isoform, or with tags, fused parts or gaps with the stated changes)": "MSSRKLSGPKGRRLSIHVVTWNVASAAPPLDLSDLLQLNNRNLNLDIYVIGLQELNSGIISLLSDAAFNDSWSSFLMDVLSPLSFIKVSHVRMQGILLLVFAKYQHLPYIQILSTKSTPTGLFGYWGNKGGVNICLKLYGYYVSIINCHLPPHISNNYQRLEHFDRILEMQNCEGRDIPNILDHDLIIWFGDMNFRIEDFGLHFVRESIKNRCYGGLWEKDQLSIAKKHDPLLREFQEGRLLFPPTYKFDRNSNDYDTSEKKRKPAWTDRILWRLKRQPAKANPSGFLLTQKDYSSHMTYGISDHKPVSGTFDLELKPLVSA", "assay": "Fluorescence polarization assay to evaluate phosphatase inhibition", "type": "biochemical", "details": "20 µM diC8-PI(3,4,5)P3, 30 min", "excerpt": "as §1"}}}
{"smiles": "CC(C)c1sc(NC(=O)c2ccccc2)c(C(=O)O)c1-c1ccccc1", "note": "[CPD-1]", "values": [{"measurement": "IC50", "setting": "[1]", "result": 2.3, "unit": "µM"}, {"measurement": "IC50", "setting": "[2]", "result": 2.9, "unit": "µM"}]}
